Assay results reported in US8889670B2, “Heterocyclic compounds which modulate the CB2 receptor” (Boehringer Ingelheim International GmbH, priority 2009, dated 2014).
Like-named read-outs stand apart in the source and are kept apart here.

Molecular target: T1, human CB2R (Homo sapiens, UniProt P34972)
T1 construct: host or cells: CHO cells
Assay: CB2R mediated modulation of cAMP synthesis (forskolin-stimulated cAMP, CHO cells expressing human CB2R)
Format: cell-based
Description: B. CB2R Mediated Modulation of cAMP Synthesis:
Compounds of the invention were evaluated for their CB2 agonist or inverse agonistic activity in accordance with the following experimental method.
CHO cells expressing human CB2R (Euroscreen) were plated at a density of 5000 cells per well in 384 well plates and incubated overnight at 37° C. After removing the media, the cells were treated with test compounds diluted in stimulation buffer containing 1 mM IBMX, 0.25% BSA and 10 uM Forskolin. The assay was incubated for 30 minutes at 37° C. Cells were lysed and the cAMP concentration was measured using DiscoverX-XS cAMP kit, following the manufacturer's protocol. In this setting, agonists will decrease forskolin induced production of cAMP while inverse agonists will further increase forskolin induced production of cAMP. EC50 of agonists were calculated as follows. The maximal amount of cAMP produced by forskolin compared to the level of cAMP inhibited by 1 uM CP55940 is defined as 100%. […] Data was analyzed using a four-parameter logistic model. (Model 205 of XLfit 4.0).

[1] = agonist EC50, inhibition of forskolin-stimulated cAMP synthesis, CHO cells expressing human CB2R, mean, read-out: CB2 CAMP @ EC50 nM (mean)

T1 sequence (P34972 whole entry): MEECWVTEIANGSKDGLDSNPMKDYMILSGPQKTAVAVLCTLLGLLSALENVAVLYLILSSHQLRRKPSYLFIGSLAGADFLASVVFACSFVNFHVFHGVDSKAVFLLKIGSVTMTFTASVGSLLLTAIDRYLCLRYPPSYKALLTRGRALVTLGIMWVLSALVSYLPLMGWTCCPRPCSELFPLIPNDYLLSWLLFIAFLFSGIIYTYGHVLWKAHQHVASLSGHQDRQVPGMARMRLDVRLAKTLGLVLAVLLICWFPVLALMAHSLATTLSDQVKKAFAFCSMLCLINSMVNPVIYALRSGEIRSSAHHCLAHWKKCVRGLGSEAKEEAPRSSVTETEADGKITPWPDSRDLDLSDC

In the case of COCC(C)(C)c1cc(NC(=O)[C@@H]2CCCCN2C(=O)N2CCS(=O)(=O)CC2)no1 [(S)-1-(1,1-Dioxo-1λ^6-thiomorpholine-4-carbonyl)-piperidine-2-carboxylic acid [5-(2-methoxy-1,1-dimethyl-ethyl)-isoxazol-3-yl]-amide], the EC50 [1] is reported as 162 nM.
CC(C)(C)c1cc(NC(=O)[C@@H]2CCCCN2C(=O)C2CCS(=O)(=O)C2)no1 (stereo partly drawn) [(S)-1-(1,1-Dioxo-tetrahydro-1λ^6-thiophene-3-carbonyl)-piperidine-2-carboxylic acid (5-tert-butyl-isoxazol-3-yl)-amide] gave an EC50 of 17 nM.
For CC(C)(C)c1cc(NC(=O)[C@@H]2CCCCN2C(=O)C(F)(F)F)no1 [(S)-1-(2,2,2-Trifluoro-acetyl)-piperidine-2-carboxylic acid (5-tert-butyl-isoxazol-3-yl)-amide], the EC50 was 48 nM.
Compound CC(C)(C)c1cc(NC(=O)[C@@H]2CCCCN2C(=O)CN2CCOCC2)no1 [(S)-1-(2-Morpholin-4-yl-acetyl)-piperidine-2-carboxylic acid (5-tert-butyl-isoxazol-3-yl)-amide] has an EC50 [1] of 188 nM.
In the case of CC(C)(C)c1cc(NC(=O)[C@@H]2CCCCN2C(=O)CN2CCCC2)no1 [(S)-1-(2-Pyrrolidin-1-yl-acetyl)-piperidine-2-carboxylic acid (5-tert-butyl-isoxazol-3-yl)-amide], the EC50 [1] is reported as 431 nM.
For CC(C)(C)c1cc(NC(=O)[C@@H]2CCCCN2Cc2ccc(F)c(F)c2)no1 [(S)-1-(3,4-Difluoro-benzyl)-piperidine-2-carboxylic acid (5-tert-butyl-isoxazol-3-yl)-amide], the EC50 was 0.58 nM.
In the case of CC(C)(C)c1cc(NC(=O)[C@@H]2CCCCN2C(=O)c2cccc(Cl)c2)no1 [(S)-1-(3-Chloro-benzoyl)-piperidine-2-carboxylic acid (5-tert-butyl-isoxazol-3-yl)-amide], the EC50 is reported as 44 nM.
CC(C)(C)c1cc(NC(=O)[C@@H]2CCCCN2C(=O)C2CCC(F)(F)CC2)on1 [(S)-1-(4,4-Difluoro-cyclohexanecarbonyl)-piperidine-2-carboxylic acid (3-tert-butyl-isoxazol-5-yl)-amide] gave an EC50 of 1 nM.
CC(C)(C)c1cc(NC(=O)[C@@H]2CCCCN2C(=O)C2CCC(F)(F)CC2)no1 [(S)-1-(4,4-Difluoro-cyclohexanecarbonyl)-piperidine-2-carboxylic acid (5-tert-butyl-isoxazol-3-yl)-amide] gave an EC50 of 4.6 nM.
Compound O=C(Nc1ccc(C(F)(F)F)cn1)[C@@H]1CCCCN1C(=O)C1CCC(F)(F)CC1 [(S)-1-(4,4-Difluoro-cyclohexanecarbonyl)-piperidine-2-carboxylic acid (5-trifluoromethyl-pyridin-2-yl)-amide] has an EC50 [1] of 282 nM.
CC(C)(C)c1cc(NC(=O)[C@H]2CCCN(C(=O)C3CCC(F)(F)CC3)C2)no1 [(S)-1-(4,4-Difluoro-cyclohexanecarbonyl)-piperidine-3-carboxylic acid (5-tert-butyl-isoxazol-3-yl)-amide] gave an EC50 of 119 nM.
Compound CC(C)(C)c1cc(NC(=O)[C@@H]2CCCCN2C(=O)N2CCC(F)(F)CC2)no1 [(S)-1-(4,4-Difluoro-piperidine-1-carbonyl)-piperidine-2-carboxylic acid (5-tert-butyl-isoxazol-3-yl)-amide] has an EC50 of 3.7 nM.
CC(C)(C)c1cc(NC(=O)[C@@H]2CCCCN2S(=O)(=O)c2ccc(Cl)cc2)no1 [(S)-1-(4-Chloro-benzenesulfonyl)-piperidine-2-carboxylic acid (5-tert-butyl-isoxazol-3-yl)-amide] gave an EC50 of 21 nM.
Work on CC(C)(C)c1cc(NC(=O)[C@@H]2CCCC(=O)N2c2ccc(Cl)cc2)on1 [(S)-1-(4-Chloro-phenyl)-6-oxo-piperidine-2-carboxylic acid (3-tert-butyl-isoxazol-5-yl)-amide] yielded an EC50 [1] of 181 nM.
For CC(C)(C)c1cc(NC(=O)[C@@H]2CCCCCN2c2ccc(Cl)cc2)no1 [(S)-1-(4-Chloro-phenyl)-azepane-2-carboxylic acid (5-tert-butyl-isoxazol-3-yl)-amide], the EC50 was 0.4 nM.
With CC(C)(C)c1cc(NC(=O)[C@@H]2CCCCN2C(=O)c2ccc(F)cc2)no1 [(S)-1-(4-Fluoro-benzoyl)-piperidine-2-carboxylic acid (5-tert-butyl-isoxazol-3-yl)-amide] the EC50 was 2.2 nM.
Work on COc1ccc(S(=O)(=O)N2CCCC[C@H]2C(=O)Nc2cc(C(C)(C)C)on2)cc1 [(S)-1-(4-Methoxy-benzenesulfonyl)-piperidine-2-carboxylic acid (5-tert-butyl-isoxazol-3-yl)-amide] yielded an EC50 of 27 nM.
For CC(C)(C)c1cc(NC(=O)[C@@H]2CCCCN2C(=O)C[C@H]2CCCO2)no1 [(S)-1-((R)-2-Tetrahydro-furan-2-yl-acetyl)-piperidine-2-carboxylic acid (5-tert-butyl-isoxazol-3-yl)-amide], the EC50 was 94 nM.
Compound CC(C)(C)c1cc(NC(=O)[C@@H]2CCCCCN2C2CCOCC2)no1 [(S)-1-(Tetrahydro-pyran-4-yl)-azepane-2-carboxylic acid (5-tert-butyl-isoxazol-3-yl)-amide] has an EC50 of 0.18 nM.
Compound O=C(Nc1nc(C2CCCCC2)cs1)[C@@H]1CCCCN1C1CCOCC1 [(S)-1-(Tetrahydro-pyran-4-yl)-piperidine-2-carboxylic acid (4-cyclohexyl-thiazol-2-yl)-amide] has an EC50 [1] of 65 nM.
With O=C(Nc1nc2cc(Cl)ccc2s1)[C@@H]1CCCCN1C1CCOCC1 [(S)-1-(Tetrahydro-pyran-4-yl)-piperidine-2-carboxylic acid (5-chloro-benzothiazol-2-yl)-amide] the EC50 [1] was 206 nM.
With CC(C)(C)c1cc(NC(=O)[C@@H]2CCCCCN2CC2CCOCC2)no1 [(S)-1-(Tetrahydro-pyran-4-ylmethyl)-azepane-2-carboxylic acid (5-tert-butyl-isoxazol-3-yl)-amide] the EC50 was 0.03 nM.
Work on CCn1nc(NC(=O)[C@@H]2CCCCN2CC2CCOCC2)nc1-c1ccccc1 [(S)-1-(Tetrahydro-pyran-4-ylmethyl)-piperidine-2-carboxylic acid (1-ethyl-5-phenyl-1H-1,2,4-triazol-3-yl)-amide] yielded an EC50 [1] of 8.6 nM.
For O=C(Nc1ccc(C(F)(F)F)c(F)c1)[C@@H]1CCCCN1CC1CCOCC1 [(S)-1-(Tetrahydro-pyran-4-ylmethyl)-piperidine-2-carboxylic acid (3-fluoro-4-trifluoromethyl-phenyl)-amide], the EC50 [1] was 1.8 nM.
With CC(C)c1nsc(NC(=O)[C@@H]2CCCCN2CC2CCOCC2)n1 [(S)-1-(Tetrahydro-pyran-4-ylmethyl)-piperidine-2-carboxylic acid (3-isopropyl-1,2,4-thiadiazol-5-yl)-amide] the EC50 [1] was 208 nM.
For O=C(Nc1nc(-c2ccccc2)ns1)[C@@H]1CCCCN1CC1CCOCC1 [(S)-1-(Tetrahydro-pyran-4-ylmethyl)-piperidine-2-carboxylic acid (3-phenyl-1,2,4-thiadiazol-5-yl)-amide], the EC50 [1] was 1.2 nM.
CC(C)(C)c1nsc(NC(=O)[C@@H]2CCCCN2CC2CCOCC2)n1 [(S)-1-(Tetrahydro-pyran-4-ylmethyl)-piperidine-2-carboxylic acid (3-tert-butyl-1,2,4-thiadiazol-5-yl)-amide] was tested, and the EC50 was 12 nM.
CC(C)(C)c1cc(NC(=O)[C@@H]2CCCCN2CC2CCOCC2)sn1 [(S)-1-(Tetrahydro-pyran-4-ylmethyl)-piperidine-2-carboxylic acid (3-tert-butyl-isothiazol-5-yl)-amide] showed an EC50 of 0.3 nM.
With O=C(Nc1nc(C2CCCCC2)cs1)[C@@H]1CCCCN1CC1CCOCC1 [(S)-1-(Tetrahydro-pyran-4-ylmethyl)-piperidine-2-carboxylic acid (4-cyclohexyl-thiazol-2-yl)-amide] the EC50 [1] was 9 nM.
In the case of O=C(Nc1ccc(F)c(C(F)(F)F)c1)[C@@H]1CCCCN1CC1CCOCC1 [(S)-1-(Tetrahydro-pyran-4-ylmethyl)-piperidine-2-carboxylic acid (4-fluoro-3-trifluoromethyl-phenyl)-amide], the EC50 is reported as 26 nM.
O=C(Nc1nc2c(F)cccc2s1)[C@@H]1CCCCN1CC1CCOCC1 [(S)-1-(Tetrahydro-pyran-4-ylmethyl)-piperidine-2-carboxylic acid (4-fluoro-benzothiazol-2-yl)-amide] showed an EC50 of 1.3 nM.
O=C(Nc1nc(-c2ccccc2)cs1)[C@@H]1CCCCN1CC1CCOCC1 [(S)-1-(Tetrahydro-pyran-4-ylmethyl)-piperidine-2-carboxylic acid (4-phenyl-thiazol-2-yl)-amide] gave an EC50 [1] of 9.9 nM.
CC(C)(C)c1coc(NC(=O)[C@@H]2CCCCN2CC2CCOCC2)n1 [(S)-1-(Tetrahydro-pyran-4-ylmethyl)-piperidine-2-carboxylic acid (4-tert-butyl-oxazol-2-yl)-amide] was tested, and the EC50 was 2.4 nM.
CC(C)(C)c1csc(NC(=O)[C@@H]2CCCCN2CC2CCOCC2)n1 [(S)-1-(Tetrahydro-pyran-4-ylmethyl)-piperidine-2-carboxylic acid (4-tert-butyl-thiazol-2-yl)-amide] gave an EC50 of 13 nM.
Compound O=C(Nc1cc(C(F)(F)F)ccn1)[C@@H]1CCCCN1CC1CCOCC1 [(S)-1-(Tetrahydro-pyran-4-ylmethyl)-piperidine-2-carboxylic acid (4-trifluoromethyl-pyridin-2-yl)-amide] has an EC50 [1] of 290 nM.
In the case of O=C(Nc1nc2cc(Cl)ccc2s1)[C@@H]1CCCCN1CC1CCOCC1 [(S)-1-(Tetrahydro-pyran-4-ylmethyl)-piperidine-2-carboxylic acid (5-chloro-benzothiazol-2-yl)-amide], the EC50 is reported as 0.2 nM.
Compound CCc1sc(NC(=O)[C@@H]2CCCCN2CC2CCOCC2)nc1-c1ccccc1 [(S)-1-(Tetrahydro-pyran-4-ylmethyl)-piperidine-2-carboxylic acid (5-ethyl-4-phenyl-thiazol-2-yl)-amide] has an EC50 [1] of 0.55 nM.
